Laboratory results reported in patent US20080139581A1 (priority 2005, published 2008).

CCCCCCCCc1c(CC)nc2nc(Cl)nn2c1N
melting point: 202 to 203 °C
